This passage reports IC50 results from patent US12643887B2, “Heterocyclic derivatives with cardiomyocyte proliferation activity for treatment of heart diseases” (Tongji University, priority 2019, dated 2026).

As a reminder, the IC50 is the point on the concentration scale where inhibition reaches its midpoint.

The target in one assay is T1, human GSK3 beta (Homo sapiens, UniProt P49841).
T1 construct: Recombinant full-length human GSK3 beta (expressed in Sf9 insect cells with an N-terminal His tag); His (N); purchased SignalChem G09-10H; host or cells: Sf9 insect cells
T1 sequence (P49841 whole entry): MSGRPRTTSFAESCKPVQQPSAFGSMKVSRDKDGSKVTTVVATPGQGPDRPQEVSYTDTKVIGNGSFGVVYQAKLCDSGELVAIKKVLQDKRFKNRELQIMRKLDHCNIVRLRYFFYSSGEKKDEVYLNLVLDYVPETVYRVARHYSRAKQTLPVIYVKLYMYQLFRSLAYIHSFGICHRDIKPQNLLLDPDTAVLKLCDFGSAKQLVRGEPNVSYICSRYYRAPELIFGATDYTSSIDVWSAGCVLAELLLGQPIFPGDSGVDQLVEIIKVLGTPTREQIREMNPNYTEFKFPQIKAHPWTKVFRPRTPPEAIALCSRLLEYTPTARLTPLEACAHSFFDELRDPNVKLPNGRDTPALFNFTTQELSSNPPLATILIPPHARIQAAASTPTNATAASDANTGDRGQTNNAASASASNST
The experiment in a line: GSK3 beta enzyme assay (ADP-Glo). In kind it is biochemical. Particulars: ATP 25 μM, read-out: GSK3b IC50. As to the method: 1. GSK3 Beta Enzyme Assay
The ability of compounds to inhibit human GSK3 beta kinase activities was determined using a commercially available ADP-Glo™ Kinase Assay kit (Promega, Cat #V9102) according to the manufacturer's protocol. The ADP-Glo™ Kinase Assay is a luminescent ADP detection assay that provides a universal, homogeneous, high-throughput screening method to measure kinase activity by quantifying the amount of ADP produced during a kinase reaction. The ADP-Glo™ Kinase Assay can be used to monitor the activity of virtually any ADP-generating enzymes (e.g., kinases or ATPases).
Recombinant full-length human GSK3 beta (expressed in Sf9 insect cells with an N-terminal His tag) was purchased from SignalChem (Cat #G09-10H). The GSK3 substrate peptide (sequence: […](pS)EDEEE) was purchased from SignalChem (Cat #G50-58). This assay, run in a 384-well plate format, is a generic method for measuring kinase activities using an ADP-Glo Kinase Assay Kit. The basic assay procedure involves two steps: (1) Enzymatic step: inhibitors are incubated with the kinase and then ATP (included in the ADP-Glo Kinase Assay Kit) and the GSK3 substrate peptide are added to start the enzymatic reaction; (2) Detection step: after the kinase reaction, first ADP-Glo™ Reagent is added to terminate the kinase reaction and deplete the remaining ATP. Second, the Kinase Detection Reagent is added to simultaneously convert ADP to ATP and allow the newly synthesized ATP to be measured using a luciferase/luciferin reaction. The light generated is measured using a luminometer.
Briefly, GSK3 beta (4 nM) in the enzymatic buffer solutions (40 mM Tris, pH 7.5, 20 mM MgCl2, 0.1 mg/ml BSA, 50 μM DTT) were mixed with various concentrations of inhibitors (dissolved in 100% DMSO). These solutions were incubated for 30 minutes at 25° C., and subsequently a mixture of substrate peptide and ATP was added with the final peptide and ATP concentrations at 13 μM and 25 μM, respectively. The final reaction mixture of enzyme-substrate-ATP-compound was incubated for 60 minutes at 25° C.
Afterwards ADP-Glo™ Reagent was added and the mixture was incubated at 25° C. for 60 minutes. Then Kinase Detection Reagent was added and the final mixture was incubated at 25° C. for 60 minutes. The luminescence signal of the final solution was measured on an Envision instrument (PerkinElmer). The percent (%) inhibition at each concentration of a compound is calculated relative to the luminescence signal in the Max and Min control wells contained within each assay plate. […] The concentrations and percent inhibition values for a test compound are plotted and the concentration of the compound required to achieve 50% inhibition (IC50) is determined with a four-parameter logistic dose response equation.
A general note: In ADP-Glo the light output rises with the ADP produced.

The next assay deals with T2, human CK2a2 (CSNK2a2) (Homo sapiens, UniProt P19784).
T2 construct: Recombinant human CK2a2 (CSNK2a2) (full length); GST (N); purchased SignalChem C71-10G; host or cells: Sf9 insect cells
T2 sequence (P19784 whole entry): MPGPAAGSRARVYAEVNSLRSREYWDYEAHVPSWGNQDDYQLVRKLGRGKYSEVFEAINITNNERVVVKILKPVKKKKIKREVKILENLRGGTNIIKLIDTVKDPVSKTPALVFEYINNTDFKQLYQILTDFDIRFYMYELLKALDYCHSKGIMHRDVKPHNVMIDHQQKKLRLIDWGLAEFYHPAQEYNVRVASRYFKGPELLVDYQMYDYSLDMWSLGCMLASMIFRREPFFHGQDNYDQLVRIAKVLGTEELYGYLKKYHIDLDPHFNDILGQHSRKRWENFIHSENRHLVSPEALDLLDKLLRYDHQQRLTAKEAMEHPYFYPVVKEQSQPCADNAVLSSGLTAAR
The experiment in a line: CK2a2 (CSNK2a2) enzyme assay (ADP-Glo). In kind it is biochemical. Particulars: ADP-Glo, ATP 15 μM; read-out: CK2 alpha 2 IC50. As to the method: 8. CK2a2 (CSNK2a2) Enzyme Assay
The ability of compounds to inhibit human CK2a2 (CSNK2a2) kinase activities was determined using a commercially available ADP-Glo™ Kinase Assay kit (Promega, Cat #V9102) according to the manufacturer's protocol.
Recombinant human CK2a2 (CSNK2a2) (full length) (expressed in Sf9 insect cells with an N-terminal GST tag) was purchased from SignalChem (Cat #C71-10G). CK2 substrate (sequence: […]) was purchased from SignalChem (Cat #C08-58). This assay, run in a 384-well plate format, is a generic method for measuring kinase activities using an ADP-Glo Kinase Assay Kit. The basic assay procedure involves two steps: (1) Enzymatic step: inhibitors are incubated with the kinase and then ATP (included in the ADP-Glo Kinase Assay Kit) and the MBP protein are added to start the enzymatic reaction; (2) Detection step: after the kinase reaction, first ADP-Glo™ Reagent is added to terminate the kinase reaction and deplete the remaining ATP. Second, the Kinase Detection Reagent is added to simultaneously convert ADP to ATP and allow the newly synthesized ATP to be measured using a luciferase/luciferin reaction. The light generated is measured using a luminometer.
Briefly, CK2a2 (CSNK2a2) (7 nM) in the enzymatic buffer solutions (40 mM Tris, pH 7.5, 20 mM MgCl2, 0.1 mg/ml BSA, 50 μM DTT) were mixed with various concentrations of inhibitors (dissolved in 100% DMSO). These solutions were incubated for 30 minutes at 25° C., and subsequently a mixture of substrate peptide and ATP was added with the final peptide and ATP concentrations at 0.04 mg/ml and 15 μM, respectively. The final reaction mixture of enzyme-substrate-ATP-compound was incubated for 90 minutes at 25° C.
Afterwards ADP-Glo™ Reagent was added and the mixture was incubated at 25° C. for 60 minutes. Then Kinase Detection Reagent was added, and the final mixture was incubated at 25° C. for 60 minutes. The luminescence signal of the final solution was measured on an Envision instrument (PerkinElmer). The percent (%) inhibition at each concentration of a compound is calculated relative to the luminescence signal in the Max and Min control wells contained within each assay plate. […] The concentrations and percent inhibition values for a test compound are plotted and the concentration of the compound required to achieve 50% inhibition (IC50) is determined with a four-parameter logistic dose response equation.

For `COc1ccc(N(C)C2=N/C(=C\c3ccc4ncsc4c3)C(=O)N2)cc1` [Example 38, (Z)-5-(benzo[d]thiazol-6-ylmethylene)-2-((4-methoxyphenyl)(methyl)amino)-3,5-dihydro-4H-imidazol-4-one], the IC50 on human GSK3 beta was above 10 µM; on human CK2a2 (CSNK2a2) it was 100 to 1000 nM.
For the compound `CC(C)NC1=N/C(=C\c2ccc3ncsc3c2)C(=O)N1C` [Example 45, (Z)-5-(benzo[d]thiazol-6-ylmethylene)-2-(isopropylamino)-3-methyl-3,5-dihydro-4H-imidazol-4-one], the half-maximal inhibitory concentration (IC50) at human GSK3 beta was in the range of 1 to 10 µM; at human CK2a2 (CSNK2a2), 1000 to 10000 nM.
Taken in the same sequence, the figures for `CN(C1=N/C(=C\c2ccc3c(c2)OCO3)C(=O)N1)c1ccc(N)cc1` [Example 37, (Z)-2-((4-aminophenyl)(methyl)amino)-5-(benzo[d][1,3]dioxol-5-ylmethylene)-3,5-dihydro-4H-imidazol-4-one] were above 10 µM and 100 to 1000 nM.
With `O=C1NC(Nc2ccccc2)=N/C1=C\c1ccc2occc2c1` [Example 52, (Z)-5-(benzofuran-5-ylmethylene)-2-(phenylamino)-3,5-dihydro-4H-imidazol-4-one], the IC50 at human GSK3 beta is above 10 µM; on human CK2a2 (CSNK2a2), above 10000 nM.
The corresponding values for `O=C1NC(Nc2ccc(Cl)cc2)=N/C1=C\c1ccc2ncsc2c1` [Example 40, (Z)-5-(benzo[d]thiazol-6-ylmethylene)-2-((4-chlorophenyl)amino)-3,5-dihydro-4H-imidazol-4-one] are above 10 µM and above 10000 nM.
Regarding `O=C1NC(Nc2ccc3ncsc3c2)=N/C1=C\c1ccc2c(c1)OCO2` [Example 47, (Z)-5-(benzo[d][1,3]dioxol-5-ylmethylene)-2-(benzo[d]thiazol-6-ylamino)-3,5-dihydro-4H-imidazol-4-one], the concentration for half-maximal inhibition (IC50) is above 10 µM at human GSK3 beta and above 10000 nM at human CK2a2 (CSNK2a2).
As for `O=C1NC(Nc2ccccc2)=N/C1=C\c1ccc2ncccc2c1` [Example 53, (Z)-2-(phenylamino)-5-(quinolin-6-ylmethylene)-3,5-dihydro-4H-imidazol-4-one], the half-maximal inhibitory concentration (IC50) at human GSK3 beta was above 10 µM; on human CK2a2 (CSNK2a2) it was above 10000 nM.
As to `NC1=N/C(=C\c2ccc3ncsc3c2)C(=O)N1` [Example 103, (Z)-2-amino-5-(benzo[d]thiazol-6-ylmethylene)-3,5-dihydro-4H-imidazol-4-one], the 50% inhibitory concentration (IC50) was in the range of 1 to 10 µM at human GSK3 beta and 100 to 1000 nM on human CK2a2 (CSNK2a2).
Taken in the same sequence, the figures for `CN(C1=N/C(=C\c2ccc3ncsc3c2)C(=O)N1)c1ccc(N)cc1` [Example 44, (Z)-2-((4-aminophenyl)(methyl)amino)-5-(benzo[d]thiazol-6-ylmethylene)-3,5-dihydro-4H-imidazol-4-one] were 1 to 10 µM and 100 to 1000 nM.
Consider `CN(C1=N/C(=C\c2ccc3c(c2)OCO3)C(=O)N1)c1ccccc1` [Example 1, (Z)-5-(benzo[d][1,3]dioxol-5-ylmethylene)-2-(methyl(phenyl)amino)-3,5-dihydro-4H-imidazol-4-one], for which, on human CK2a2 (CSNK2a2), the IC50 lay in the range of 100 to 1000 nM.
Consider `O=C1NC(Nc2ccccc2)=N/C1=C\c1ccc2ncsc2c1` [Example 6, (Z)-5-(benzo[d]thiazol-6-ylmethylene)-2-(phenylamino)-3,5-dihydro-4H-imidazol-4-one], for which the 50% inhibitory concentration (IC50) at human GSK3 beta was 0.1 to 1 µM; at human CK2a2 (CSNK2a2), below 100 nM.
Taken in the same sequence, the figures for `CN(CC1CC1)C1=N/C(=C\c2ccc3c(c2)OCO3)C(=O)N1` [Example 11, (Z)-5-(benzo[d][1,3]dioxol-5-ylmethylene)-2-((cyclopropylmethyl)(methyl)amino)-3,5-dihydro-4H-imidazol-4-one] were above 10 µM and 100 to 1000 nM.
As for `COc1ccccc1N(C)C1=N/C(=C\c2ccc3c(c2)OCO3)C(=O)N1` [Example 21, (Z)-5-(benzo[d][1,3]dioxol-5-ylmethylene)-2-((2-methoxyphenyl)(methyl)amino)-3,5-dihydro-4H-imidazol-4-one], the IC50 at human GSK3 beta is above 10 µM; at human CK2a2 (CSNK2a2), 1000 to 10000 nM.
Take `O=C1/C(=C/c2ccc3ncsc3c2)N=C(N(Cc2ccccc2)c2ccccc2)N1Cc1ccccc1` [Example 42, (Z)-5-(benzo[d]thiazol-6-ylmethylene)-3-benzyl-2-(benzyl(phenyl)amino)-3,5-dihydro-4H-imidazol-4-one]: the IC50 was above 10 µM at human GSK3 beta and above 10000 nM at human CK2a2 (CSNK2a2).
In the case of `CN(C1=N/C(=C\c2ccc3ncsc3c2)C(=O)N1)c1ccccc1` [Example 7, (Z)-5-(benzo[d]thiazol-6-ylmethylene)-2-(methyl(phenyl)amino)-3,5-dihydro-4H-imidazol-4-one], the half-inhibitory concentration (IC50) is 1 to 10 µM at human GSK3 beta and 100 to 1000 nM at human CK2a2 (CSNK2a2).
As for `O=C1NC(Nc2ccc3ncsc3c2)=N/C1=C\c1ccc2ncsc2c1` [Example 48, (Z)-2-(benzo[d]thiazol-6-ylamino)-5-(benzo[d]thiazol-6-ylmethylene)-3,5-dihydro-4H-imidazol-4-one], the IC50 was above 10 µM on human GSK3 beta and below 100 nM on human CK2a2 (CSNK2a2).
Take `CN(C1=N/C(=C\c2ccc3c(c2)OCO3)C(=O)N1)c1ccc2ncsc2c1` [Example 70, (Z)-5-(benzo[d][1,3]dioxol-5-ylmethylene)-2-(benzo[d]thiazol-6-yl(methyl)amino)-3,5-dihydro-4H-imidazol-4-one]: the values for the IC50 on human GSK3 beta and on human CK2a2 (CSNK2a2) were above 10 µM and 100 to 1000 nM, respectively.
For the compound `O=C1NC(Nc2ccc3nccnc3c2)=N/C1=C\c1ccc2ncsc2c1` [Example 82, (Z)-5-(benzo[d]thiazol-6-ylmethylene)-2-(quinoxalin-6-ylamino)-3,5-dihydro-4H-imidazol-4-one], the IC50 was 0.1 to 1 µM on human GSK3 beta and below 100 nM at human CK2a2 (CSNK2a2).
The corresponding values for `CN(C1=N/C(=C\c2ccc3c(c2)OCCO3)C(=O)N1)c1ccc2ncsc2c1` [Example 84, (Z)-2-(benzo[d]thiazol-6-yl(methyl)amino)-5-((2,3-dihydrobenzo[b][1,4]dioxin-6-yl)methylene)-3,5-dihydro-4H-imidazol-4-one] are 1 to 10 µM and 100 to 1000 nM.
With `O=C1NC(N(CCO)c2ccccc2)=N/C1=C\c1ccc2c(c1)OCO2` [Example 13, (Z)-5-(benzo[d][1,3]dioxol-5-ylmethylene)-2-((2-hydroxyethyl)(phenyl)amino)-3,5-dihydro-4H-imidazol-4-one], the half-inhibitory concentration (IC50) on human GSK3 beta was in the range of 1 to 10 µM; on human CK2a2 (CSNK2a2), 100 to 1000 nM.
The corresponding values for `Cn1cnc2ccc(/C=C3\N=C(Nc4ccccc4)NC3=O)cc21` [Example 46, (Z)-5-((1-methyl-1H-benzo[d]imidazol-6-yl)methylene)-2-(phenylamino)-3,5-dihydro-4H-imidazol-4-one] are 0.1 to 1 µM and below 100 nM.
